Source: article PMC9081833, “Discovery of acylphloroglucinol-based meroterpenoid enantiomers as KSHV inhibitors from Hypericum japonicum” (RSC Advances, 2018)
Like-named read-outs stand apart in the source and are kept apart here.

Tests used:
Human iSLK.219 cells = conditions: 50% cytotoxic concentration, 48 h, with Dox and NaB
KSHV lytic replication [1] = assay: Field-based 3D QSAR model of anti-KSHV activity; parameters: species or system Kaposi's sarcoma associated herpesvirus (KSHV); unit not given here; conditions: log IC50 of the anti-KSHV IC50
Text: Qualitative analysis was followed by quantitative SAR (QSAR) modelling utilizing the Field-Based QSAR Panel implemented in Schrödinger Suite[14] to set up CoMFA/CoMSIA models from these enantiomers. These enantiomers first superimposed using the flexible shape-based alignment method (Fig. 6). […] Experimental activities of additional analogues would likely provide a better model. Moreover, correlation between the observed activities and the predicted activities was plotted in Fig. 7.
QSAR studies were conducted with Schrödinger Suite 2017-1.
A data set (Table 3) was randomly assigned into training and test sets with a ratio of approximately 4/1, and their activities (IC50) were converted to the logarithm (log IC50). The minimized conformations of these enantiomers were generated utilizing LigPrep and aligned according to the flexible shape-based alignment method. The force field was used and the maximum PLS factors were set as 1/5 of the total number of the training set in order to avoid over-fitting. The parameters that were not mentioned were left as defaults.

in vitro = conditions: human, CC50, 50% cytotoxic concentration, iSLK.219 cells, 48 h, with Dox and NaB
KSHV lytic replication [2] = conditions: for Selective index (CC50/IC50): human; for IC50: supernatant of iSLK.219 cells treated 48 h used to infect Vero cells 48 h, GFP readout
KSHV lytic replication [3] = assay: microbe, parasite or virus in culture; conditions: Human gammaherpesvirus 8, Vero, 48 h, supernatant of iSLK.219 cells treated 48 h used to infect Vero cells 48 h, GFP readout
KSHV lytic replication [4] = assay: in vitro; conditions: human, Selective index (CC50/IC50)

CC(C)C(=O)c1c(O)cc(O)c2c1OC1(C)CCC(C(C)(C)O)OC1C2 (stereo not shown) [Compound 6b]
CC50 (Human iSLK.219 cells): 174 µM | Observed activity (KSHV lytic replication [1]): 1.600

C=C(C)C1CCC2(C)Oc3c(c(O)cc(O)c3C(=O)C(C)C)CC12 (single isomer, unassigned; (+)) [Compound 1a, (+)-japonicol E]
Observed activity (KSHV lytic replication [1]): 0.919 | CC50 (in vitro): 195 µM | Selective index (CC50/IC50) (KSHV lytic replication [2]): 23.49 | IC50 (KSHV lytic replication [2]): 8.3 µM

CC(C)C(=O)c1c(O)cc(O)c(CC2C(C(C)(C)O)CCC2(C)O)c1O (stereo not shown) [Compound 8b]
CC50 (Human iSLK.219 cells): > 300 µM | Observed activity (KSHV lytic replication [1]): 2.200 | Selective index (CC50/IC50) (KSHV lytic replication [2]): >1.89 | IC50 (KSHV lytic replication [2]): 158 µM

CC(C)=CCCC(C)(O)C1Cc2c(O)cc(O)c(C(=O)C(C)C)c2O1 (single isomer, unassigned; (-)) [Compound 3b, (−)-japonicol G]
CC50 (Human iSLK.219 cells): 50.1 µM | Observed activity (KSHV lytic replication [1]): 0.826 | Selective index (CC50/IC50) (KSHV lytic replication [2]): 7.48 | IC50 (KSHV lytic replication [2]): 6.7 µM

CC(C)C(=O)c1c(O)cc(O)c2c1OC(C)(C)C1CCC(C)(O)C1C2 (stereo not shown) [Compound 7b]
CC50 (Human iSLK.219 cells): > 300 µM | Observed activity (KSHV lytic replication [1]): 1.464 | IC50 (KSHV lytic replication [2]): 39.8 µM

C=C(C)C1CCC2(C)Oc3c(c(O)cc(O)c3C(=O)C(C)C)CC12 (single isomer, unassigned; (-)) [Compound 1b, (−)-japonicol E]
CC50 (Human iSLK.219 cells): 190 µM | Observed activity (KSHV lytic replication [1]): 1.388 | Selective index (CC50/IC50) (KSHV lytic replication [2]): 7.78 | IC50 (KSHV lytic replication [2]): 24.5 µM

CC(C)=CCCC(C)(O)C1Cc2c(O)cc(O)c(C(=O)C(C)C)c2O1 (single isomer, unassigned; (+)) [Compound 3a, (+)-japonicol G]
Observed activity (KSHV lytic replication [1]): 1.337 | CC50 (in vitro): 79.5 µM | Selective index (CC50/IC50) (KSHV lytic replication [2]): 3.66 | IC50 (KSHV lytic replication [2]): 21.7 µM

CC(C)=CCCC(C)(O)C1Cc2c(O)cc(O)c(C(=O)c3ccccc3)c2O1 (single isomer, unassigned; (+)) [Compound 4a, (+)-japonicol H]
Observed activity (KSHV lytic replication [1]): 0.690 | CC50 (in vitro): 126 µM | Selective index (CC50/IC50) (KSHV lytic replication [2]): 25.70 | IC50 (KSHV lytic replication [2]): 4.9 µM

CC(C)=CCCC1(C)Oc2c(c(O)cc(O)c2C(=O)C(C)C)CC1O (single isomer, unassigned; (-)) [Compound 2b, (−)-japonicol F]
CC50 (Human iSLK.219 cells): 150 µM | Observed activity (KSHV lytic replication [1]): 1.436 | Selective index (CC50/IC50) (KSHV lytic replication [2]): 5.50 | IC50 (KSHV lytic replication [2]): 27.3 µM

CC(C)C(=O)c1c(O)cc(O)c2c1OC1(C)CCC(C(C)(C)O)C2C1O (stereo not shown) [Compound 5b]
CC50 (Human iSLK.219 cells): > 500 µM | Observed activity (KSHV lytic replication [1]): 2.149 | Selective index (CC50/IC50) (KSHV lytic replication [2]): >3.55 | IC50 (KSHV lytic replication [2]): 141 µM

CC(C)C(=O)c1c(O)cc(O)c2c1OC1(C)CCC(C(C)(C)O)C2C1O (stereo not shown) [Compound 5a]
IC50 (KSHV lytic replication [3]): 203 µM | Observed activity (KSHV lytic replication [1]): 2.307 | CC50 (in vitro): > 500 µM | selectivity ratio (KSHV lytic replication [4]): > 2.46

CC(C)C(=O)c1c(O)cc(O)c2c1OC(C)(C)C1CCC(C)(O)C1C2 (stereo not shown) [Compound 7a]
Observed activity (KSHV lytic replication [1]): 0.942 | CC50 (in vitro): 221 µM | IC50 (KSHV lytic replication [2]): 17.7 µM

CC(C)C(=O)c1c(O)cc(O)c(CC2C(C(C)(C)O)CCC2(C)O)c1O (stereo not shown) [Compound 8a]
Observed activity (KSHV lytic replication [1]): 1.602 | CC50 (in vitro): > 300 µM | Selective index (CC50/IC50) (KSHV lytic replication [2]): >7.50 | IC50 (KSHV lytic replication [2]): 40 µM

CC(C)C(=O)c1c(O)cc(O)c2c1OC1(C)CCC(C(C)(C)O)OC1C2 (stereo not shown) [Compound 6a]
Observed activity (KSHV lytic replication [1]): 1.247 | CC50 (in vitro): 141 µM

CC(C)=CCCC1(C)Oc2c(c(O)cc(O)c2C(=O)C(C)C)CC1O (single isomer, unassigned; (+)) [Compound 2a, (+)-japonicol F]
IC50 (KSHV lytic replication [3]): 28 µM | Observed activity (KSHV lytic replication [1]): 1.447 | CC50 (in vitro): 126 µM | selectivity ratio (KSHV lytic replication [4]): 4.5

Nc1ccn(C[C@@H](CO)OCP(=O)(O)O)c(=O)n1 [Cidofovir, reference compound]
IC50 (KSHV lytic replication [3]): 0.0081 µM | CC50 (in vitro): > 1 µM | selectivity ratio (KSHV lytic replication [4]): > 123

CC(C)=CCCC(C)(O)C1Cc2c(O)cc(O)c(C(=O)c3ccccc3)c2O1 (single isomer, unassigned; (-)) [Compound 4b, (−)-japonicol H]
CC50 (Human iSLK.219 cells): > 200 µM | Observed activity (KSHV lytic replication [1]): 1.469 | Selective index (CC50/IC50) (KSHV lytic replication [2]): >6.79 | IC50 (KSHV lytic replication [2]): 29.5 µM
